Assay results published in patent publication EP0357061B1, “Angiogenesis inhibitory agent” (priority 1988, dated 1990).
Structures can show the parent of a compound that is named as a salt. Marks after values point to notes of the source that are not given here.

Test system: bFGF-induced angiogenesis
Experiment: rat cornea micropocket method (angiogenesis inhibitory activity)
Assay type: in vivo, Sprague-Dawley rats
Conditions: rats with angiogenesis inhibitory activity / rats tested; sample pellet 20 »g; judged after 7 days
Method: The product compound (I) obtained in the examples given below were evaluated for angiogenesis inhibitory activity by the rat cornea micropocket method.
Essentially the method of Gimbrone et al. [J. National Cancer Institute, 52, 413-419 (1974)] was followed. Thus, adult male Sprague-Dawley rats (11 to 16 weeks of age) were anesthetized with nembutal and locally anesthetized by instillation of xylocaine eyedrops onto the eyeball. The cornea was incised to a length of about 2 mm at about 2mm inside from the corneal circumference by means of an injection needle, and a sustained release pellet containing basic fibroblast growth factor (bFGF; bovine brain-derived, purified product; R & D) and a sustained release pellet containing the test sample were inserted side by side into the incision so that the bFGF pellet was located on the central side in the cornea. In the control group, the bFGF pellet and a sample-free pellet were inserted into the cornea. After 7 days and after 10 days, the cornea was observed under a stereoscopic microscope.
The sustained release pellets were prepared in the following manner. An ethylene-vinyl acetate copolymer (Takeda Chemical Industries) was dissolved in dichloromethane to a concentration of 8%. A 3-»l portion of the solution was air-dried on a glass dish, an aqueous solution of bFGF (250 ng) was then placed thereon and air-dried and, finally 3 »l of the above ethylene-vinyl acetate copolymer solution was placed further thereon and air-dried to give a laminate consisting of two copolymer layers and a bFGF layer sandwiched therebetween. This sandwich sheet was made round into a bFGF pellet. The test sample pellets were prepared by dissolving each sample in ethanol in a concentration of 20 »g/2 »l, mixing the solution (2 »l) with 6 »l of an ethylene-vinyl acetate copolymer solution, air-drying the mixed solution on a glass dish and making the thus-obtained sheet round.

Row | Structure (SMILES) | Inhibition rate
1 | CO[C@@H]1[C@H](OC(=O)COCC(=O)O)CC[C@]2(CO2)[C@H]1[C@@]1(C)O[C@@H]1CC=C(C)C [Example 5, O-Carboxymethoxyacetylfumagillol] | 8/8*
2 | CO[C@@H]1[C@H](OC(=O)Nc2ccccc2)CC[C@]2(CO2)[C@H]1[C@@]1(C)O[C@@H]1CC=C(C)C [Example 11, O-Phenylcarbamoylfumagillol] | 9/9*
3 | CO[C@@H]1[C@H](OCc2ccccc2)CC[C@]2(CO2)[C@H]1[C@@]1(C)O[C@@H]1CC=C(C)C [Example 17, O-Benzylfumagillol] | 7/8*

Same assay, conditions: rats with angiogenesis inhibitory activity / rats tested; sample pellet 20 »g; judged after 10 days

Row | Structure (SMILES) | Inhibition rate
4 | CO[C@@H]1[C@H](OC(=O)CCC(=O)O)CC[C@]2(CO2)[C@H]1[C@@]1(C)O[C@@H]1CC=C(C)C [Example 2, Sodium salt of O-(3-carboxypropionyl)fumagillol] | 6/6
5 | CO[C@@H]1[C@H](OC(=O)CCCC(=O)O)CC[C@]2(CO2)[C@H]1[C@@]1(C)O[C@@H]1CC=C(C)C [Example 4, Sodium salt of O-(4-carboxybutanoyl)fumagillol] | 6/7
6 | CO[C@@H]1[C@H](OC(=O)c2ccccc2C(=O)O)CC[C@]2(CO2)[C@H]1[C@@]1(C)O[C@@H]1CC=C(C)C [Example 6, O-(2-Carboxybenzoyl)fumagillol] | 6/7
7 | CO[C@@H]1[C@H](OC)CC[C@]2(CO2)[C@H]1[C@@]1(C)O[C@@H]1CC=C(C)C [Example 14, O-Methylfumagillol] | 4/8
8 | CO[C@@H]1[C@H](OCc2ccc(Br)cc2)CC[C@]2(CO2)[C@H]1[C@@]1(C)O[C@@H]1CC=C(C)C [Example 18, O-(p-Bromobenzyl)fumagillol] | 7/7
9 | CO[C@@H]1[C@H](OS(=O)(=O)c2ccc(C)cc2)CC[C@]2(CO2)[C@H]1[C@@]1(C)O[C@@H]1CC=C(C)C [Example 20, O-(p-Toluenesulfonyl)fumagillol] | 3/4
10 | CO[C@@H]1[C@H](OS(C)(=O)=O)CC[C@]2(CO2)[C@H]1[C@@]1(C)O[C@@H]1CC=C(C)C [Example 21, O-Methylsulfonylfumagillol] | 4/4
11 | CO[C@@H]1[C@H](OC(=O)Oc2ccccc2)CC[C@]2(CO2)[C@H]1[C@@]1(C)O[C@@H]1CC=C(C)C [Example 22, O-Phenoxycarbonylfumagillol] | 5/8
12 | CO[C@@H]1[C@H](OC(N)=O)CC[C@]2(CO2)[C@H]1[C@@]1(C)O[C@@H]1CC=C(C)C [Example 23, O-Carbamoylfumagillol] | 6/8
13 | CO[C@@H]1[C@H](OC(=O)N2CCOCC2)CC[C@]2(CO2)[C@H]1[C@@]1(C)O[C@@H]1CC=C(C)C [Example 24, O-Morpholinocarbonylfumagillol] | 5/12
14 | CO[C@@H]1[C@H](OC(=O)N2CCCCC2)CC[C@]2(CO2)[C@H]1[C@@]1(C)O[C@@H]1CC=C(C)C [Example 25, O-Piperidinocarbonylfumagillol] | 6/8
15 | CO[C@@H]1[C@H](OC(=O)NN)CC[C@]2(CO2)[C@H]1[C@@]1(C)O[C@@H]1CC=C(C)C [Example 26, O-Carbazoylfumagillol] | 6/6
16 | CO[C@@H]1[C@H](OC(=O)n2ccnc2)CC[C@]2(CO2)[C@H]1[C@@]1(C)O[C@@H]1CC=C(C)C [Example 27, O-(1-Imidazolylcarbonyl)fumagillol] | 3/7
17 | CO[C@@H]1[C@H](OC(=O)NCCN(C)C)CC[C@]2(CO2)[C@H]1[C@@]1(C)O[C@@H]1CC=C(C)C [Example 28, O-(2-Dimethylaminoethylcarbamoyl)fumagillol] | 11/11
18 | CO[C@@H]1[C@H](OC(=O)NC(C)=O)CC[C@]2(CO2)[C@H]1[C@@]1(C)O[C@@H]1CC=C(C)C [Example 29, O-Acetylcarbamoylfumagillol] | 7/7
19 | CO[C@@H]1[C@H](OC(=O)NC(=O)C(Cl)Cl)CC[C@]2(CO2)[C@H]1[C@@]1(C)O[C@@H]1CC=C(C)C [Example 30, O-Dichloroacetylcarbamoylfumagillol] | 4/8
20 | CO[C@@H]1[C@H](OC(=O)NC(=O)C(Cl)(Cl)Cl)CC[C@]2(CO2)[C@H]1[C@@]1(C)O[C@@H]1CC=C(C)C [Example 31, O-Trichloroacetylcarbamoylfumagillol] | 5/6
21 | CO[C@@H]1[C@H](OC(=O)NC(=O)c2ccccc2)CC[C@]2(CO2)[C@H]1[C@@]1(C)O[C@@H]1CC=C(C)C [Example 32, O-Benzoylcarbamoylfumagillol] | 9/12
22 | C=C(C)C(=O)NC(=O)O[C@@H]1CC[C@]2(CO2)[C@@H]([C@@]2(C)O[C@@H]2CC=C(C)C)[C@@H]1OC [Example 33, O-Methacryloylcarbamoylfumagillol] | 4/6

Row | Structure (SMILES) | Inhibition rate
23 | CO[C@@H]1[C@H](OC(=O)NCCCl)CC[C@]2(CO2)[C@H]1[C@@]1(C)O[C@@H]1CC=C(C)C [Example 34, O-(2-Chloroethylcarbamoyl)fumagillol] | 4/4
24 | CO[C@@H]1[C@H](OC(=O)Nc2ccc(Cl)cc2)CC[C@]2(CO2)[C@H]1[C@@]1(C)O[C@@H]1CC=C(C)C [Example 35, O-(p-Chlorophenylcarbamoyl)fumagillol] | 4/8
25 | CO[C@@H]1[C@H](OC(=O)Nc2ccc(F)cc2F)CC[C@]2(CO2)[C@H]1[C@@]1(C)O[C@@H]1CC=C(C)C [Example 37, O-(2,4-Difluorophenylcarbamoyl)fumagillol] | 11/11
26 | CO[C@@H]1[C@H](OC(=O)NS(=O)(=O)c2ccc(C)cc2)CC[C@]2(CO2)[C@H]1[C@@]1(C)O[C@@H]1CC=C(C)C [Example 38, O-(p-Toluenesulfonylcarbamoyl)fumagillol] | 13/15
27 | CCN1CCN(C(=O)O[C@@H]2CC[C@]3(CO3)[C@@H]([C@@]3(C)O[C@@H]3CC=C(C)C)[C@@H]2OC)CC1 [Example 39, O-[1-(4-Ethylpiperazinyl)carbonyl]fumagillol] | 8/8
28 | CO[C@@H]1[C@H](OC(=O)NC(=O)COC(C)=O)CC[C@]2(CO2)[C@H]1[C@@]1(C)O[C@@H]1CC=C(C)C [Example 40, O-Acetoxyacetylcarbamoylfumagillol] | 6/6
29 | CO[C@@H]1[C@H](OC(=O)NC(=O)CSC(C)=O)CC[C@]2(CO2)[C@H]1[C@@]1(C)O[C@@H]1CC=C(C)C [Example 41, O-Acetylthioacetylcarbamoylfumagillol] | 2/4
30 | CO[C@@H]1[C@H](OC(=O)NC(=O)CSc2nc3ccccc3s2)CC[C@]2(CO2)[C@H]1[C@@]1(C)O[C@@H]1CC=C(C)C [Example 42, O-(2-Benzothiazolylthioacetylcarbamoyl)fumagillol] | 7/7
31 | CO[C@@H]1[C@H](OC(=O)NC(=O)CSc2cccc[n+]2[O-])CC[C@]2(CO2)[C@H]1[C@@]1(C)O[C@@H]1CC=C(C)C [Example 43, O-[(Pyridine-N-oxide-2-yl)thioacetylcarbamoyl]fumagillol] | 7/7
32 | CCN(CC)CC(=O)NC(=O)O[C@@H]1CC[C@]2(CO2)[C@@H]([C@@]2(C)O[C@@H]2CC=C(C)C)[C@@H]1OC [Example 44, O-Diethylaminoacetylcarbamoylfumagillol] | 7/7
33 | CO[C@@H]1[C@H](OC(c2ccccc2)c2ccccc2)CC[C@]2(CO2)[C@H]1[C@@]1(C)O[C@@H]1CC=C(C)C [Example 45, O-Diphenylmethylfumagillol] | 8/13
34 | CO[C@@H]1[C@H](OCc2cccc3ccccc23)CC[C@]2(CO2)[C@H]1[C@@]1(C)O[C@@H]1CC=C(C)C [Example 46, O-(1-Naphthylmethyl)fumagillol] | 7/10
35 | CO[C@@H]1[C@H](OC(=O)CCCCl)CC[C@]2(CO2)[C@H]1[C@@]1(C)O[C@@H]1CC=C(C)C [Example 49, O-(4-Chlorobutyryl)fumagillol] | 4/5
36 | CO[C@@H]1[C@H](OC(=O)NC(=O)CSc2nnnn2CCN(C)C)CC[C@]2(CO2)[C@H]1[C@@]1(C)O[C@@H]1CC=C(C)C [Example 52, O-[[1-(2-Dimethylaminoethyl)tetrazol]-5-yl-thioacetylcarbamoyl]fumagillol] | 6/8
37 | CO[C@@H]1[C@H](OC(=O)NC(=O)CSc2nnc(C)s2)CC[C@]2(CO2)[C@H]1[C@@]1(C)O[C@@H]1CC=C(C)C [Example 53, O-[(2-methyl-1,3,4-thiadiazol-5-yl)thioacetylcarbamoyl]fumagillol] | 8/8
38 | CO[C@@H]1[C@H](OC(=O)NC(=O)CSc2cccc3ccccc23)CC[C@]2(CO2)[C@H]1[C@@]1(C)O[C@@H]1CC=C(C)C [Example 54, O-(1-Naphthalenethioacetylcarbamoyl)fumagillol] | 5/5
39 | CO[C@@H]1[C@H](OC(=O)NCC[N+](C)(C)C)CC[C@]2(CO2)[C@H]1[C@@]1(C)O[C@@H]1CC=C(C)C [Example 56, O-[2-(N,N,N-Trimethylammonio)ethylcarbamoyl]fumagillol iodide] | 4/7
40 | CO[C@@H]1[C@H](OC(=O)N(CCN(C)C)C(C)=O)CC[C@]2(CO2)[C@H]1[C@@]1(C)O[C@@H]1CC=C(C)C [Example 57, O-[N-Acetyl-(2-dimethylaminoethylcarbamoyl)]fumagillol] | 6/6
